Data reported in US6939850B2, “Altered human interleukin-1β convertase (ICE), NEDD-2, and C. elegans ced-3 polypeptides and uses therefor” (Massachusetts Institute of Technology, priority 1992, dated 2005).

System: lumbar motoneurons
Test: Motoneuron death following limb bud removal
Format: in vivo, chick
From the text: Peptides. Two peptide inhibitors of ICE, Acetyl-Tyr-Val-Ala-Asp-aldehyde (Ac-YVAD-CHO) and Acetyl-Tyr-Val-Ala-Asp-chloromethylketone (Ac-YVAD-CMK) and two control peptide inhibitors, Acetyl-Leu-Leu-Arg-aldehyde (Ac-LLR-CHO; Leupeptin) and n-tosyl-Lys-chloromethyl-ketone (Tos-Lys-CMK) were synthesized by Bachem Biosciences (King of Prussia, Pa.) and shown by thin layer chromatography and HPLC to be greater than 98% pure. […] Methods for administration of peptides to examine effects on naturally occurring motoneuron cell death in vivo. Although cell death of lumbar motoneurons occurs between E6 and E12, the peak period of death (i.e., the greatest number of pyknotic cells) occurs on E8 (Oppenheim et al., J Comp. Neurol. 177:87-112 (1978)). For these experiments, embryos were given a single administration of an agent on E8 0 hr and sacrificed 15 hours later. […] Ac-YVAD-CMK and Tos-Lys-CMK were administered in a solution of DMSO/BSA, whereas Ac-YVAD-CHO and leupeptin (Sigma) were in BSA alone. The solutions (50-100 μl) were dropped onto the highly vascularized chorioallantoic membrane through a window in the shell. The control groups included both DMSO and BSA or vehicle alone. Embryos were killed and staged by the Hamburger-Hamilton series (Hamburger and Hamilton, J. Morph. 88:49-92 (1951)). The thoraco-lumbar spinal cord was dissected, fixed in Camoys or Bouins fixative, processed for paraffin histology, serially sectioned (10-12 μm) and stained with either thionin or hematoxylin and eosin. Pyknotic motoneurons were identified based on criteria previously described (Chu-Wang and Oppenheim, J. Comp. Neurol. 177:33-58 (1978); Clarke and Oppenheim In Methods in Cell Biology Series; Cell Death; eds: Schwartz and Osborne. Academic Press. New York, N.Y. In press.) and were counted in every 10th or 20th section through the entire lumbar enlargement. The total number of pyknotic cells were then estimated by multiplying these values by 10 or 20. All cell counts were performed by individuals blinded with regard to drug treatment of the embryos. Methods for limb bud removal experiments. A unilateral limb bud removal was performed on E2 as described previously (Oppenheim et al., J. Comp. Neurol. 177:87-112 (1978)). Because induced cell death following limb removal begins on E5 (before that there is no difference in the number of motoneurons between the operated or unoperated sides) embryos were given one treatment of Ac-YVAD-CHO (40 μg) or BSA (control) at E5-0 hr and another at E5-12 hours (total peptide administered was 80 μg). Animals were killed at E6-0 hr. Methods were the same as described above except the section thickness was 6-8 μm (see Method for Administration of Peptides, above). Methods for limb bud interdigital regions. Embryos were treated with 100 μg of peptide or vehicle in 50 μl on E6.0 and on E7.0 (total 200 μg) as described above (Chu-Wang and Oppenheim, J. Comp. Neurol. 177:33-58 (1978); Clarke and Oppenheim In Methods in Cell Biology Series; Cell Death; eds: Schwartz and Osborne. Academic Press. New York, N.Y. In press.) and killed at E7.5. The footpads were placed in Bouin's fixative and processed as described above (see Method of Limb Bud Removal, above). Pyknotic cells in all interdigital regions were counted in every 10th section (6-8 μm) of serial transverse sections through the entire footpad.

[1] = limb bud removal on E2, 40 μg at E5-0 hr and E5-12 hours, mean ±SD
[2] = unoperated side, 40 μg at E5-0 hr and E5-12 hours, mean ±SD

**Q.** How did the survival promoting effect (following limb bud removal) turn out when “Acetyl-Tyr-Val-Ala-Asp-aldehyde [Ac-YVAD-CHO]” was run?
**A.** no survival promoting effect

**Q.** And the “Healthy Motoneurons (lumbar) on E6, Ipsilateral” value [1]?
**A.** 11,109 ± 1592

**Q.** What about the “Pyknotic Motoneurons (lumbar) on E6, Ipsilateral” value [1] of the same substance?
**A.** 317 ± 89

**Q.** What about the “Healthy Motoneurons (lumbar) on E6, Contralateral” value [2] of the same substance?
**A.** 17,914 ± 1733

**Q.** And the “Pyknotic Motoneurons (lumbar) on E6, Contralateral” value [2]?
**A.** 67 ± 13
